Test results from paper PMC12264551 (Molecular Pharmacology, 2025).

What was measured:
[1] = molecular target: T1, VPAC2R (Homo sapiens, UniProt P41587); assay: Live cell cAMP accumulation (GloSensor), COS-7 cells transfected with VPAC2R; type: cell-based
T1 construct: host or cells: COS-7
T1 sequence (P41587 24-438): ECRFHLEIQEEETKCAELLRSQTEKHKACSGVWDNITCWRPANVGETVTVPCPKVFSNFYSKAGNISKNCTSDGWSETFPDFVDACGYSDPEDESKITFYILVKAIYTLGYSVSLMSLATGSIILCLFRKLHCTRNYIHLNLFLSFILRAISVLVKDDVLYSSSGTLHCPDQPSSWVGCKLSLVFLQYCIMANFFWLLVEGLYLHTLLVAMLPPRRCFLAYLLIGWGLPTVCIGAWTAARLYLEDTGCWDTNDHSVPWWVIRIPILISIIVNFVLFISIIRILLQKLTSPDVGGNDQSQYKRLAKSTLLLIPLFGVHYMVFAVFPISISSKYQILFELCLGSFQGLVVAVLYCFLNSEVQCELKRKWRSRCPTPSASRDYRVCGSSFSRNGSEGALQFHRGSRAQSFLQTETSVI

[2] = molecular target: calcitonin receptor (UniProt P30988)
[3] = molecular target: calcitonin receptor, endogenous in MCF-7 cells (human (endogenous in MCF-7)) (UniProt P30988)
[4] = molecular target: T2, CRLR + RAMP1 (CGRP receptor) (Homo sapiens, UniProt O60894+Q16602); assay: Live cell cAMP accumulation (GloSensor), COS-7 cells transfected with CRLR + RAMP1; type: cell-based; conditions: RAMP1, COS-7
T2 construct: RAMP plasmid gift of Dr Patrick Sexton; host or cells: COS-7
T2 sequence (Q16602 23-461): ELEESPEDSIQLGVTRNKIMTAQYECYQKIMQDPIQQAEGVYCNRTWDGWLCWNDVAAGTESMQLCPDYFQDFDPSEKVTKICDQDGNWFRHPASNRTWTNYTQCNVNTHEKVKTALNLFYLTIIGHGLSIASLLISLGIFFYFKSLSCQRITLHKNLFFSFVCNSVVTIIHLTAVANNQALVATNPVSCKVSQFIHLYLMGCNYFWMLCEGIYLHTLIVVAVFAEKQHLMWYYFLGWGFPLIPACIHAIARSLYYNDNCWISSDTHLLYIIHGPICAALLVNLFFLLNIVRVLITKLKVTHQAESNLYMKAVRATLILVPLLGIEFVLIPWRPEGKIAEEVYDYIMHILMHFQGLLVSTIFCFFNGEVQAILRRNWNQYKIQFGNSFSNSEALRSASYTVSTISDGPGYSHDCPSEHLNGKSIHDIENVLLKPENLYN
T2 sequence (O60894 27-148): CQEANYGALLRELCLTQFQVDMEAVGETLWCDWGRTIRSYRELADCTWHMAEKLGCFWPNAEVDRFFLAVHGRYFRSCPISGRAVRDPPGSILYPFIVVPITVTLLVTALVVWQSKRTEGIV

[5] = molecular target: T3, CRLR + RAMP2 (adrenomedullin 1 receptor) (Homo sapiens, UniProt O60895+Q16602); assay: Live cell cAMP accumulation (GloSensor), COS-7 cells transfected with CRLR + RAMP2; type: cell-based; conditions: ATP […] + CGRP 10 nM, RAMP2, COS-7
T3 construct: RAMP plasmid gift of Dr Patrick Sexton; host or cells: COS-7
T3 sequence (Q16602 23-461): as the sequence (Q16602 23-461) above
T3 sequence (O60895 43-175): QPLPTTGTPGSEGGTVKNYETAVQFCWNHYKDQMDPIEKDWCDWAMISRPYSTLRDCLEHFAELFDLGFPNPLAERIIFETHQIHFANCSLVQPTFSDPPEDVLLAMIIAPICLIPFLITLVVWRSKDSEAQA

[6] = molecular target: T4, PAC1R (Homo sapiens, UniProt P41586); assay: Live cell cAMP accumulation (GloSensor), COS-7 cells transfected with PAC1R; type: cell-based; conditions: ATP […] + PACAP 0.1 nM
T4 construct: host or cells: COS-7
T4 sequence (P41586 21-468): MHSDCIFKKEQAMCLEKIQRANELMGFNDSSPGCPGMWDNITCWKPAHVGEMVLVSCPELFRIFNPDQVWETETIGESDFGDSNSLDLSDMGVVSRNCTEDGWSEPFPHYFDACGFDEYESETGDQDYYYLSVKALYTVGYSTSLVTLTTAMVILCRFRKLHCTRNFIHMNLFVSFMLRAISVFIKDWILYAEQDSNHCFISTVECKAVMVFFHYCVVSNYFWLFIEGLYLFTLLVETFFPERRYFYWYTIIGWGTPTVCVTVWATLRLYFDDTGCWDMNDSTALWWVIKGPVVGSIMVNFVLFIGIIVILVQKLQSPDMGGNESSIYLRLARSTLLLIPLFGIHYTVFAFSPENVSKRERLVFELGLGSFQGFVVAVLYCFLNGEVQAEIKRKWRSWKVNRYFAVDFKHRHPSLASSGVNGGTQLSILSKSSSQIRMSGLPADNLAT

[7] = tested on: PTH1R; conditions: ref Kim et al, 2018, cited from earlier work
Excerpt: Extracellular nucleotides are known for their ability to act as purinoceptor agonists ([Burnstock, 2007]).

[8] = molecular target: T5, VPAC1R (Homo sapiens, UniProt P32241); assay: Live cell cAMP accumulation (GloSensor), COS-7 cells transfected with VPAC1R; type: cell-based; design: host or cells: COS-7; conditions: ATP […] + VIP 0.1 nM
T5 sequence (P32241 31-457): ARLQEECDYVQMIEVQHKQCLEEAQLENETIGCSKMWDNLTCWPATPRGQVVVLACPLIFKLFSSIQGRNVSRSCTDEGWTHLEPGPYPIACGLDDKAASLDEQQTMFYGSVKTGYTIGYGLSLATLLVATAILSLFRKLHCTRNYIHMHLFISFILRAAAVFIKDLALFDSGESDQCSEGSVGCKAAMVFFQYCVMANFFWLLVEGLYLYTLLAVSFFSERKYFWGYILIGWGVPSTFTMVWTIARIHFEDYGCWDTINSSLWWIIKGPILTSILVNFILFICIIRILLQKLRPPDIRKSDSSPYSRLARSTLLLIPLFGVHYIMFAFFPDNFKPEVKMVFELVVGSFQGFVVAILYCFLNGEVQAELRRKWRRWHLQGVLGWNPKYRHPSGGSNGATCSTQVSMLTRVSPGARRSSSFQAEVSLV

[9] = molecular target: T6, calcitonin receptor (Homo sapiens, UniProt P30988); assay: Live cell cAMP accumulation (GloSensor), COS-7 cells transfected with calcitonin receptor; type: cell-based; design: host or cells: COS-7 (African monkey kidney) in A3; conditions: ATP […] + calcitonin 1 nM
T6 sequence (P30988 25-474): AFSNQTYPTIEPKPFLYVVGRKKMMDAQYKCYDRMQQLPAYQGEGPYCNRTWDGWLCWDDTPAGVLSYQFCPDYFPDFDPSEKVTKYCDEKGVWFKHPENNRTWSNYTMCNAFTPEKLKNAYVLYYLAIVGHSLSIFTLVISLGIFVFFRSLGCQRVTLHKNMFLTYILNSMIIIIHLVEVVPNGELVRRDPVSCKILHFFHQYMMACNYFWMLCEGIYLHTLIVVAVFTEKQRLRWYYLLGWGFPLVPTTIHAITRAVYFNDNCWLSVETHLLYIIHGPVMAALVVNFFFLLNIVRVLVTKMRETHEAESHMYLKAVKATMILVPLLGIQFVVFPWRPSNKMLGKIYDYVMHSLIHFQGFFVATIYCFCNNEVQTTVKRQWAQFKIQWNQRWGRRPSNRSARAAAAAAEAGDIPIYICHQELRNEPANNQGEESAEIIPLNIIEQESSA

[10] = molecular target: T5, VPAC1R; assay: Live cell cAMP accumulation (GloSensor), SaOS-2 cells with endogenous VPAC1R; type: cell-based; design: SaOS-2 cells endogenously express VPAC1R; endogenous in cells; host or cells: SaOS-2; conditions: ATP […] + VIP 1 nM
[11] = molecular target: T6, calcitonin receptor; assay: Live cell cAMP accumulation (GloSensor), UMR-106 cells transfected with calcitonin receptor; type: cell-based; design: host or cells: UMR-106 (rat osteoblast-like) in A1; COS-7 (African monkey kidney) in A3; conditions: ATP […] + calcitonin 1 nM

CC[C@H](C)[C@H](NC(=O)[C@H](CO)NC(=O)[C@H](CC(N)=O)NC(=O)[C@H](CC(C)C)NC(=O)[C@H](Cc1ccc(O)cc1)NC(=O)[C@H](CCCCN)NC(=O)[C@H](CCCCN)NC(=O)[C@@H](NC(=O)[C@H](C)NC(=O)[C@H](CCSC)NC(=O)[C@H](CCC(N)=O)NC(=O)[C@H](CCCCN)NC(=O)[C@H](CCCNC(=N)N)NC(=O)[C@H](CC(C)C)NC(=O)[C@H](CCCNC(=N)N)NC(=O)[C@@H](NC(=O)[C@H](Cc1ccc(O)cc1)NC(=O)[C@H](CC(N)=O)NC(=O)[C@H](CC(=O)O)NC(=O)[C@@H](NC(=O)[C@H](Cc1ccccc1)NC(=O)[C@@H](NC(=O)[C@H](C)NC(=O)[C@H](CC(=O)O)NC(=O)[C@H](CO)NC(=O)[C@@H](N)Cc1c[nH]cn1)C(C)C)[C@@H](C)O)[C@@H](C)O)C(C)C)C(=O)N[C@@H](CC(C)C)C(=O)N[C@@H](CC(N)=O)C(N)=O [VIP, vasoactive intestinal peptide]
Normalized Maximum ([1]; VIP + vehicle, Fig. 6H, VPAC2R, fraction of greatest slope, ± SEM, n = 3-5): 0.94 ± 0.01

Salmon calcitonin (peptide)
−LogEC50 of calcitonin, maximum rate of cAMP accumulation (GloSensor), COS-7 cells transfected with calcitonin receptor, vehicle (Fig. 1F) (−LogEC50 (EC50 in M)) [2]: 9.64
−LogEC50 of calcitonin, maximum rate of cAMP accumulation (GloSensor), COS-7 cells transfected with calcitonin receptor, with ATP 1.5 mM (Fig. 1F) (−LogEC50 (EC50 in M)) [2]: 10.5
−LogEC50 of calcitonin, maximum rate of cAMP accumulation (GloSensor), UMR-106 cells transfected with calcitonin receptor, vehicle (Fig. 1B) (−LogEC50 (EC50 in M)) [2]: 9.15
−LogEC50 of calcitonin, maximum rate of cAMP accumulation (GloSensor), UMR-106 cells transfected with calcitonin receptor, with ATP 1.5 mM (Fig. 1B) (−LogEC50 (EC50 in M)) [2]: 10.3
−LogEC50 of calcitonin, maximum rate of cAMP accumulation (GloSensor), MCF-7 cells (endogenous calcitonin receptor), vehicle (Fig. 1D) (−LogEC50 (EC50 in M)) [3]: 8.19
−LogEC50 of calcitonin, maximum rate of cAMP accumulation (GloSensor), MCF-7 cells (endogenous calcitonin receptor), with ATP 1.5 mM (Fig. 1D) (−LogEC50 (EC50 in M)) [3]: 9.86

Nc1ncnc2c1ncn2[C@@H]1O[C@H](COP(=O)(O)OP(=O)(O)OP(=O)(O)O)[C@@H](O)[C@H]1O [ATP, Adenosine 5'-triphosphate]
Hill coefficient / slope factor ([4]; ATP + CGRP 10 nM, 4-parameter fit, n = 3): 3.2
effect on CGRP-induced cAMP accumulation ([4]; ATP […] + CGRP 10 nM): markedly enhanced
EC50 ([4]; EC50 of ATP for potentiation of CGRP signaling, ATP + CGRP 10 nM, 4-parameter fit, n = 3): 500 µM
effect on CGRP-induced cAMP accumulation [5]: markedly enhanced
effect on PACAP-induced cAMP accumulation [6]: markedly enhanced
effect on VIP-induced cAMP accumulation ([1]; ATP […] + VIP 0.1 nM): markedly enhanced
effect on PTH1R signaling in absence of added agonist ([7]; extracellular ATP alone): no effect on PTH1R signaling in the absence of added agonist
effect on agonist-induced cAMP elevation and β-arrestin recruitment ([7]; extracellular ATP with PTH1R agonist): strongly enhance
effect on VIP-induced cAMP accumulation [8]: markedly enhanced
effect on rate of calcitonin-induced cAMP accumulation [9]: markedly enhanced
effect on VIP-induced cAMP accumulation [10]: enhanced VIP-induced cAMP accumulation
effect on calcitonin-induced cAMP accumulation [11]: markedly enhanced
